Where “and” joins values, the source holds several entries; their conditions need not be identical. Equal entries are not always repeated. Structures can show the parent of a compound that is named as a salt.

Experimental findings from patent US20060166941A1, “Treatment and/or prevention of non-viral epithelial damage” (Epistem Limited, priority 2003, published 2006) are described below.

In one assay the test system is oral mucosa. In words: In vivo protection of oral mucosa following chemotherapy (5FU) damage, ventral tongue cellularity. Further details: species or system mice. As to conditions: 50 mg/kg intra-peritoneal 1 hr prior to 5FU (400 mg/kg x 2) and daily for three days; versus vehicle. As to the method:
In Vivo Protection of Oral Mucosa Following Chemotherapy Damage. The ability of foscarnet (phosphonoformic acid trisodium salt hexahydrate) to prevent cytotoxic damage to oral mucosa was illustrated by the following experiment. The model of cytotoxic insult used was treatment with 2 doses of 400 mg/kilogram bodyweight 5-Flurouracil 6 hours apart. Such cytotoxic treatment provides a model of chemotherapy administered to patients undergoing treatment for cancer. Experimental groups, each of five mice, were established as set out below: Group 2: Received intra-peritoneal injection, containing 50 mg foscarnet/kilogram bodyweight, in sterile water, one hour prior to the first cytotoxic treatment (400 mg 5-Flurouracil/kilogram bodyweight). Received one further identical injection of foscarnet (50 mg/kilogram bodyweight) on each of the three days following cytotoxic treatment. […] Tissue sections were stained with thionin and using a Zeiss AxioHOME the number of cells were assessed in both the basal and suprabasal layers of the ventral surface of the tongue. The area from the basal layer to the stratum corneum stratum granulosum interface was measured along with the length of the basal layer. […] From these measurements the damage that the 5FU had caused to the tongue could be assessed as overall cellularity of the tongue or the total number of cells/unit area (mm^2). […]

Assay [1] has as its system clonogenic stem cells of the digestive epithelium. In words: In vivo protection of intestinal epithelium clonogenic stem cells, chemotherapy drug damage, independent experiment 2. The arrangement: species or system mice. The protocol:
In Vivo Protection of Intestinal Epithelium Clonogenic Stem Cells—Chemotherapy Drug Damage—Independent Experiment 2.
The data presented in Example 4 were expanded in the following study, in which the ability of foscarnet (phosphonoformic acid trisodium salt hexahydrate) to prevent cytotoxic damage to clonogenic stem cells of the digestive epithelium was investigated using the following experiment.
The model of cytotoxic insult used was treatment with 2 doses of 5-Flurouracil 6 hours apart at 400 mg of 5-Fluorouracil/kilogram bodyweight. Such cytotoxic treatment provides a model of chemotherapy administered to patients undergoing treatment for cancer.
8 experimental groups, each of six mice, were established as set out below:
Group 1: Received intra-peritoneal injection, containing 50 mg foscarnet/kilogram bodyweight, in sterile water, one hour prior to the first cytotoxic treatment. Received one further identical injection on each of the three days following cytotoxic treatment.
Group 2: Received intra-peritoneal injection, containing 50 mg foscarnet/kilogram bodyweight, in sterile water, one hour prior to the first cytotoxic treatment.
Group 3: Received intra-peritoneal injection, containing 50 mg foscarnet/kilogram bodyweight, in sterile water on each of the three days following cytotoxic treatment.
Group 4: Received intra-peritoneal injection, containing 50 mg foscarnet/kilogram bodyweight, in sterile water, 5 minutes prior to the first cytotoxic treatment. Received one further identical injection on each of the three days following cytotoxic treatment.
Group 5: Vehicle control. Received intra-peritoneal injection, of sterile water, one hour prior to the first cytotoxic treatment. Received one further identical injection on each of the days following cytotoxic treatment.
Group 6: Vehicle control. Received intra-peritoneal injection, of sterile water, one hour prior to the first cytotoxic treatment.
Group 7: Vehicle control. Received intra-peritoneal injection, of sterile water, on each of the three days following cytotoxic treatment.
Group 8: Vehicle control. Received intra-peritoneal injection, of sterile water, 5 minutes prior to the first cytotoxic treatment. Received one further identical injection on each of the three days following cytotoxic treatment.
On the fourth day after treatment the animals of each group were killed, and intestinal tissue harvested for histological analysis. Tissue sections were stained with haemotoxylin and eosin, and were analysed for the presence of regenerating intestinal crypts. Regenerating intestinal crypts are derived from one or more surviving clonogenic stem cells, whereas sterilised crypts (containing no surviving stem cells) disappear within two days of irradiation. The number of regenerating crypts per intestinal circumference was counted, and the mean crypt width measured. Scores for each animal were then corrected to account for the probability of preferentially scoring larger crypts according to the following equation: [formula]
For each treatment a Protection Factor was calculated using the following equation: corrected crypts/circumference treated corrected crypts/circumference untreated (vehicle)

Where [2] appears, read: 400 mg/kg 5FU x 2 6 hours apart plus 50 mg foscarnet/kg -5 minutes, D1, D2, D3, group Ave.
Where [3] appears, read: 400 mg/kg 5FU x 2 6 hours apart plus 50 mg foscarnet/kg -5 minutes, D1, D2, D3, individual mice.
The mark [4] stands for this setting: 400 mg/kg 5FU x 2 6 hours apart plus 50 mg foscarnet/kg -1 hr only, group Ave.
Setting [5] is: 400 mg/kg 5FU x 2 6 hours apart plus 50 mg foscarnet/kg -1 hr only, individual mice.
The mark [6] stands for this setting: 400 mg/kg 5FU x 2 6 hours apart plus 50 mg foscarnet/kg -1 hr, D1, D2, D3, group Ave.
[7] abbreviates: 400 mg/kg 5FU x 2 6 hours apart plus 50 mg foscarnet/kg -1 hr, D1, D2, D3, individual mice.
Setting [8] is: 400 mg/kg 5FU x 2 6 hours apart plus 50 mg foscarnet/kg D1, D2, D3, group Ave.
Setting [9] is: 400 mg/kg 5FU x 2 6 hours apart plus 50 mg foscarnet/kg D1, D2, D3, individual mice.
[10] abbreviates: group 1: 50 mg/kg foscarnet 1 hr prior to first 5-Flurouracil dose (400 mg/kg x 2) and 3 days after.

Regarding `O=C(O)P(=O)(O)O` [foscarnet, phosphonoformic acid trisodium salt hexahydrate], the “numbers of cells per unit area in the epithelium covering the ventral surface of the tongue (FIG. 4)” value in the assay on oral mucosa is “extra cells per unit area gained”. For the same molecule, the “Protection Factor” value is 1.11 in assay [1] (50 mg foscarnet/kg 5 minutes prior to 1st dose of 5-Flurouracil (400 mg/kg x 2 6 hrs apart) and D1, D2 & D3); 1.12 in assay [1] (50 mg foscarnet/kg 1 hr prior to 1st dose of 5-Flurouracil (400 mg/kg x 2 6 hrs apart)); 1.62 in assay [1] (50 mg foscarnet/kg 1 hr prior to 1st dose of 5-Flurouracil (400 mg/kg x 2 6 hrs apart) and D1, D2 & D3); 1.13 in assay [1] (50 mg foscarnet/kg D1, D2, D3 following 5-Flurouracil (400 mg/kg x 2 6 hrs apart)). Also, the corrected crypts/circumference in assay [1] (setting [2]) was 25.12; in assay [1] (setting [3]), 13.01 and 39.74 and 38.64 and 15.78 and 24.39 and 19.14; in assay [1] (setting [4]), 22.70; in assay [1] (setting [5]) it was 35.09 and 16.52 and 22.90 and 30.41 and 11.28 and 20.01; in assay [1] (setting [6]) it was 29.76; in assay [1] (setting [7]), 42.10 and 17.28 and 33.67 and 29.92 and 31.88 and 23.71. The corrected crypts/circumference is 19.78 in assay [1] (setting [8]); 13.74 and 9.34 and 35.87 and 23.12 and 21.45 and 15.14 in assay [1] (setting [9]). Moreover, the no. crypts/circumference was 26.97 in assay [1] (setting [2]); 13.20 and 46.50 and 40.10 and 16.30 and 24.30 and 21.40 in assay [1] (setting [3]); 24.62 in assay [1] (setting [4]); 42.50 and 16.20 and 24.70 and 32.80 and 11.70 and 19.80 in assay [1] (setting [5]); 31.28 in assay [1] (setting [6]); 44.90 and 16.00 and 35.70 and 32.50 and 34.30 and 24.30 in assay [1] (setting [7]). Also, the no. crypts/circumference was 19.58 in assay [1] (setting [8]); 14.10 and 8.50 and 35.50 and 24.10 and 19.20 and 16.10 in assay [1] (setting [9]). The “numbers of intestinal crypts after exposure to 5-Flurouracil” value in assay [1] (Groups 1, 2, 3 and 4 (50 mg foscarnet/kg regimens)) is reported as “increased numbers of intestinal crypts”. The “more crypts compared to mice treated with vehicle alone” value in assay [1] (setting [10]) is reported as about 50%. Also, the “more small intestinal clonogenic stem cells survived” value in assay [1] (setting [10]) is “at least 50%”.
